Assays:
C4-2B = assay: Clonogenic survival assay with radiation; assay type: cell-based, human; conditions: 1 μg/ml TRC105 vs IgG, 0 to 6 Gy; p<0.001
Procedure: (§1) FIG. 18A) Cell surface CD105 expression was measured in PC3, C42b, and 22Rv1 72 hours after 4 Gy irradiation treatment by FACS analysis and compared to cells not irradiated (control). FIG. 18B) Cell surface CD105 expression was measured in cell lines following a dose range of irradiation (0, 2, 4, or 6 Gy). FIG. 18C) The durability of cell surface CD105 expression in 22Rv1 was determined 0, 0.5, 4, 8, 24, 48, 72, 120, and 168 hours following 4 Gy irradiation. CD105 cell surface expression fold change was normalized to levels expressed prior to irradiation. FIG. 18D) Western blot for phosphorylated-Smad1/5 was measured in CW22Rv1 cells in the presence or absence of serum starvation and treatment with 50 ng/ml BMP4 or 1 μg/ml TRC105. β-actin expression served as the loading control. FIG. 18E) Annexin-V expression was measured in 22Rv1 cells by FACS analysis 5 days following 4 Gy irradiation in the presence and absence of TRC105. FIG. 18F) Clonogenic assay was measured 10 days following irradiation of CW22Rv1 and C42b cells in a dose range of 0 to 6 Gy in the presence of 1 μg/ml IgG or TRC105. Data are reported as a mean+/−S.D. (**p<0.01, ***p<0.001).

CW22Rv1 = assay: Clonogenic survival assay with radiation; assay type: cell-based, human; conditions: 1 μg/ml TRC105 vs IgG, 0 to 6 Gy; p<0.001
Procedure: as §1

[1] = system: SIRT1 transcription in CW22Rv1; assay: BMP dependent SIRT1 mRNA expression; assay type: cell-based, human; conditions: 50 ng/ml BMP4, serum free; TRC105 0.05-10 μg/ml
Procedure: FIG. 20A) Western blot for SIRT1 expression measured in 22Rv1 cells following serum starvation and treatment with 50 ng/ml BMP4 for 4 hours. Phosphorylated Smad1/5 and β-actin was measured concurrently. FIG. 20B) SIRT1 mRNA expression was measured in CW22Rv1 under serum free conditions with 50 ng/ml BMP4, IgG in the context of increasing doses of TRC105 (0.05, 0.1, 0.5, 1, 5, or 10 μg/ml). SIRT1 mRNA expression was normalized to GAPDH and to serum treated control. FIG. 20C) Fold Change of SIRT1 mRNA in benign prostate and prostate cancer patients, obtained from R2-Genomics analysis is expressed (n=95). FIG. 20D) Immunohistochemical localization for SIRT1 expression in benign and prostate cancer tissues is indicated by arrows (Human Protein Atlas). […] FIG. 20E) SIRT1 mRNA expression was measured 72 hours following irradiation of 22Rv1 in a dose range of 0-6 Gy. FIG. 20F) SIRT1 mRNA expression was measured in a time course 0-72 hours following 4 Gy irradiation. […]
Total RNA was extracted using the RNeasy kit (Qiagen). […] Quantitative RT-PCR was performed with 5 replicates using the Step One Real-Time PCR system (Applied Biosystems). […] For RNA-sequencing, Ion Proton AmpliSeq Transcriptome RNA Sequencing was performed achieving an average of 3M reads. We mapped an average of 88% of the reads to the human genome with Torrent Suite version 4.4.2.

CW22Rv1 cells = assay: Cell cycle analysis after irradiation; assay type: cell-based, human
Procedure: Within each group, the left column depicts G1, middle column depicts S and the right column depicts G2. […] All studies shown are 5 days after irradiation and/or 5 days of treatment with TRC105.
22Rv1 were pre-treated with 1 μg/ml TRC105 24 hours prior to irradiation with 4 Gy. FIG. 22A) γ-H2AX or p53 bp were imunolocalized at 4, 24, and 48 hours post radiation. Foci per nuclei were quantified (n=100). FIG. 22B) Comet assay was performed 30 minutes and 24 hours following irradiation. The tail moment was quantified (n=50). FIG. 22C) Cell cycle analysis was performed on 22Rv1 at 0, 4, 8, and 24 hours post radiation in the presence of IgG or TRC105 (n=3) in 3 independent experiments. (***p<0.001, ****p<0.0001).

CW22Rv1 xenograft model = assay: Subcutaneous CW22Rv1 xenograft with radiation; assay type: in vivo, mice
Procedure: Tumor volumes were longitudinally measured. When tumor average volume reached […] mice were treated with IgG or TRC105 in the context of radiation (2 Gy for 5 days). Tumors were harvested 15 days after the first dose of radiation. FIG. 28A) Tumor volume fold change was normalized to the first dose of radiation (day 1, ***p<0.001). FIG. 28B) Each treatment was compared for doubling of tumor volume as a function of time as depicted in the cumulative incidence plot.
The inventors assessed CD105 dependent radio-resistance using a CW22Rv1 xenograft model. Mice engrafted with subcutaneous CW22Rv1 were given one dose of IgG or TRC105 72 hours prior to radiation and subsequently 3 times a week for the duration of radiation treatment. The irradiated IgG and irradiated TRC105 groups were given a radiation dosage of 2Gy for 5 consecutive days. Fold change in tumor volume was calculated for each group (FIG. 28A).

TRC105: partially humanized monoclonal antibody that blocks BMP signaling; human-specific CD105 (endoglin) neutralizing antibody from Tracon Pharmaceuticals
radiation sensitivity, clonogenic survival (C4-2B): sensitized prostate cancer cells to radiation | radiation sensitivity, clonogenic survival (CW22Rv1): sensitized prostate cancer cells to radiation | BMP dependent induction of SIRT1 transcription [1]: down-regulated when CD105 was antagonized with TRC105 in a dose dependent manner | cell cycle distribution (CW22Rv1 cells; 4 Gy plus TRC105, 0-24 hours): G2 cell cycle arrest that did not resolve by 24 hours | cell cycle, G2-phase (CW22Rv1 cells; radiation combined with TRC105, 5 days): chronic up regulation of the G2-phase | tumor volume (CW22Rv1 xenograft model; TRC105 alone compared to untreated): did not influence tumor volume | tumor doubling time (CW22Rv1 xenograft model; TRC105 with irradiation vs either treatment alone): appreciably inhibited | tumor volume (CW22Rv1 xenograft model; radiation (2Gy for 5 days) and TRC105, p<0.001): significantly lower than the other three experimental groups
